Type in all cases: in vivo, C57BL/6 mice
Assay [1] relates to αSMA, TGF-β1, COL6A3, and LOX mRNAs. The assay can be described thus: Quantitative real-time PCR on liver tissue of fibrosis model mice. The following applies: liver tissue (FIG. 5); 10 mg/kg intraperitoneal for 4 weeks; almost similar to rimonabant 10 mg/kg positive control. As for the experimental part:
(§1) First, after stabilizing 5-week old male C57BL/6 mice for one week, a fibrosis model was constructed by feeding the mice with a high fat diet and a high-carbohydrate diet for 12 weeks, thereby inducing fibrosis of the mice. After that, the mice were divided into total four groups, and a vehicle (negative control group), 10mg/kg of rimonabant (positive control group), 10 mg/kg of a compound 1, and 10mg/kg of a compound 2 were administered to each of the groups by intraperitoneal injection for 4 weeks. In order to perform an experimental process, the mice were sacrificed, and epididymal adipose and liver tissues were extracted from the sacrificed mice.
(§2) After separating RNA from the extracted epididymal adipose and liver tissues by using a Trizol reagent (Gibco), cDNA templates were produced by using reverse transcriptase. After injecting such produced cDNA templates into SYBR green dyes by using gene-specific nucleotide primers, PCR products were analyzed to obtain analyzed mRNAs by amplifying the cDNA templates injected into SYBR green dyes with a real-time multiplexing amplification system (CFX connect™, Bio-Rad). At this time, the analyzed mRNAs were αSMA, TGF-β1, COL6A3, and LOX mRNAs, and used primer sequences are as described in the following [Table 1].
A general note: In qPCR the cycle at which signal appears reflects the starting amount.

Assay [2] has as its system collagen permeated into liver tissue of fibrosis model mice. The assay can be described thus: Picrosirius staining of liver tissue of fibrosis model mice. The following applies: liver tissue (FIG. 4); high fat and high-carbohydrate diet mice; 10 mg/kg intraperitoneal for 4 weeks; compared to vehicle treatment group. The method, then: as §1
(§3) After fixing and embedding the extracted epididymal adipose and liver tissues, paraffin sections were manufactured by slicing the embedded epididymal adipose and liver tissues. After that, fibrosis degrees were analyzed by staining collagen permeated into each of the tissues by using a picrosirius red stain kit.

Assay [3] relates to αSMA, TGF-β1, COL6A3, and LOX mRNAs. In words: Quantitative real-time PCR on epididymal adipose tissue of fibrosis model mice. Conditions: adipose tissue (FIG. 3); 10 mg/kg intraperitoneal for 4 weeks; almost similar to rimonabant 10 mg/kg positive control. The method, then:
as §1, §2

The subject of assay [4] is collagen permeated into epididymal adipose tissue of fibrosis model mice. The assay can be described thus: Picrosirius staining of epididymal adipose tissue of fibrosis model mice. Conditions: adipose tissue (FIG. 2); high fat and high-carbohydrate diet mice; 10 mg/kg intraperitoneal for 4 weeks; compared to vehicle treatment group. As for the experimental part: as §1, §3

Consider `Cc1c(/C=C/C(=O)NCc2cccc(Cl)c2)nn(-c2ccc(Cl)cc2Cl)c1-c1ccc(Cl)cc1` [compound 1, (E)-N-(3-chlorobenzyl)-3-(5-(4-chlorophenyl)-1-(2,4-dichlorophenyl)-4-methyl-1H-pyrazole-3-yl)acrylamide], for which the “expression of four gene mRNAs (αSMA, TGF-β1, COL6A3, LOX)” value in assay [1] and in assay [3] was “inhibited” each time. Also, the “accumulation degrees stained with red color (picrosirius, collagen)” value in assay [2] and in assay [4] was “reduced” each time.

In the case of `Cc1c(C(=O)C(=O)NCCO)nn(-c2ccc(Cl)cc2Cl)c1-c1ccc(Cl)cc1` [compound 2, 2-(5-(4-chlorophenyl)-1-(2,4-dichlorophenyl)-4-methyl-1H-pyrazole-3-yl)-N-(2-hydroxyethyl)-2-oxo-acetamide], the “expression of four gene mRNAs (αSMA, TGF-β1, COL6A3, LOX)” value in assay [1] and in assay [3] was “inhibited” in each case. Also, the “accumulation degrees stained with red color (picrosirius, collagen)” value in assay [2] and in assay [4] was “reduced” throughout.
